Test results as given in patent US10012641B2, “G-protein-coupled-receptor-22-transformed cell lines and methods of use thereof to identify binding compounds” (LIBRAMEN NATURALS INC., priority 2014, dated 2018).
Several values for one entry are separate records, joined by “and”; a condition that tells them apart may be missing. Equal values may be shown once. Entries after “also recorded” stand apart in the source; their conditions may differ.

What was measured:
non-transfected S2 cells [1] = test: Fluo-4 AM imaging of intracellular Ca2+ in non-transfected S2 cells; format: cell-based, Drosophila; conditions: guanosine versus vehicle, FIGS. 12a, 12d
Procedure: Fluo-4 AM calcium imaging was used to visualize intracellular calcium concentration in the GPRC22-transfected and non-transfected S2 cells. A 2.5 mM stock solution of Fluo-4 Am dye (molecular Probes, Burlington, ON) was prepared in DMSO and 20% Pluronic F-127 and used to within a week. The S2 cell preparations were incubated with a final concentration of 5 μM fluo-4AM and 0.02% Pluronic F-127 in 1 ml S2 culture medium for 20 min at room temperature, then washed to allow for full de-esterification of AM esters. Imaging was carried out on an upright Nikon Eclipse FN-S2N upright fluorescence microscope using 10×/40× objectives with a filter to excite Fluo-4, a dye at 488 nm wavelength (peak excitation=494 nm and peak emission=516 nm) using a Lambda DG-4 illuminator (Sutter Instrument Co., Novato, Calif., USA). Images were captured using a Quantem 512SC camera with a frame rate of 5-10 frames per second and Nikon-NIS Elements, advanced research, imaging software. […] ROIs were selected free hand and encompassed the cell body to be analyzed. The ROIs were tracked and the average pixel intensity was measured in that region for the duration of the recording. […] Intracellular calcium concentration of S2 cells was monitored at room temperature. 20-30 S2 cells were calculated to determine the average overall fluorescence signal intracellular calcium concentration. […]

[2] = system: GPCR22-transfected S2 cells; test: Actinomycin D-induced apoptosis, Caspase-3 flow cytometry, GPCR22-transfected S2 cells; format: cell-based, Drosophila; conditions: 100 μM guanosine before 1 μM actinomycin D; FIGS. 11a-d
Procedure: (§1) In order to determine whether guanosine produced any anti-apoptotic effects through a GPCR22-mediated mechanism, the effect of guanosine on apoptosis in GPCR22-transfected S2 cells was measured using flow cytometry techniques. Briefly, S2 cells were maintained in Schneider's Drosophila medium (GIBCO) supplemented with 10% heat-inactivated fetal calf serum, penicillin and streptomycin. For induction of apoptosis both receptor-transfected and non-transfected S2 cells were incubated in 1 μM actinomycin D (Sigma) for 6 hours at 25° C. Prior to the induction of apoptosis, to the S2 culture medium were either added 100 μM guanosine or the same amount of vehicle. After a 48 hr incubation with guanosine or vehicle, the cells were fixed with 4% PFA for fluorescent-immunostaining. The primary antibody Caspase-3 (10 μg/ml; R&D systems AF835) was incubated at room temperature for 1.5 hr and the secondary antibody (donkey anti rabbit Alexa488 (1:1800) was incubated at room temperature for 1 hr. After rinsing with PBS cells were re-suspend with “PBS+0.5% BSA” solution for flow cytometry reading using a 8 colour, […] (488 nm, 633 nm, 405 nm) FACS (Canto) machine.

GPCR22 [3] = biological target: T1, GPCR22 (Rattus norvegicus, UniProt D4A3U0); test: Fluo-4 AM imaging of intracellular Ca2+ in GPCR22-transfected S2 cells; format: cell-based; design: expressed in transfected cells; host or cells: Drosophila Schneider 2 (S2) cells, pMT-V5-HisA vector, CuSO4 induction
T1 sequence (D4A3U0 whole entry): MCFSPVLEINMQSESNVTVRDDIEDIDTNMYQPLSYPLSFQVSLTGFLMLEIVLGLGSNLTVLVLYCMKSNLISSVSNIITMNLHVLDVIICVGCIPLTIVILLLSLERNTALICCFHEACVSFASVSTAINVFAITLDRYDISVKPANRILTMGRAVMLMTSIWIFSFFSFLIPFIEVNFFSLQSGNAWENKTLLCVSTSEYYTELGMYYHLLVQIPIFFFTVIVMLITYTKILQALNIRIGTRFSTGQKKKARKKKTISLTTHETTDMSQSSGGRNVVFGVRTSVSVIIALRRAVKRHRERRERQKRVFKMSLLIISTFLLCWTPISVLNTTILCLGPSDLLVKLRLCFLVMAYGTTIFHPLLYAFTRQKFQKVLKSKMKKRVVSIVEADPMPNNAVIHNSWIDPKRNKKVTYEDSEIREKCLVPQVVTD
Procedure: Fluo-4 AM calcium imaging was used to visualize intracellular calcium concentration in the GPRC22-transfected and non-transfected S2 cells. A 2.5 mM stock solution of Fluo-4 Am dye (molecular Probes, Burlington, ON) was prepared in DMSO and 20% Pluronic F-127 and used to within a week. The S2 cell preparations were incubated with a final concentration of 5 μM fluo-4AM and 0.02% Pluronic F-127 in 1 ml S2 culture medium for 20 min at room temperature, then washed to allow for full de-esterification of AM esters. Imaging was carried out on an upright Nikon Eclipse FN-S2N upright fluorescence microscope using 10×/40× objectives with a filter to excite Fluo-4, a dye at 488 nm wavelength (peak excitation=494 nm and peak emission=516 nm) using a Lambda DG-4 illuminator (Sutter Instrument Co., Novato, Calif., USA). Images were captured using a Quantem 512SC camera with a frame rate of 5-10 frames per second and Nikon-NIS Elements, advanced research, imaging software. Intracellular calcium concentration was created in the Nikon-NIS elements program using regions of interest (ROIs) per each experiment. ROIs were selected free hand and encompassed the cell body to be analyzed. The ROIs were tracked and the average pixel intensity was measured in that region for the duration of the recording. These measurements were then exported to Excel and Clampfit for further analysis of frequency and amplitude. Intracellular calcium concentration of S2 cells was monitored at room temperature. 20-30 S2 cells were calculated to determine the average overall fluorescence signal intracellular calcium concentration. The fluorescence intensity was presented as the ratio F1/F0 in which the raw fluorescence intensity signals of a region of interest (ROI) was compared to the first fluorescence signal in that ROI throughout the recording. The Wilcoxon matched pairs t-test was used on two samples with equal variances to determine statistically significant differences at P=0.05. In each set of experiments, the exposure protocols for control and test conditions were identical.

GPCR22 (G1) receptor = biological target: T2, GPCR22 (G1) receptor (Homo sapiens, UniProt Q99680, C425R); test: Intracellular cAMP in 1321N1 cell line transfected with GPCR22 (G1) receptor; format: cell-based; conditions: increasing concentrations of guanosine, absence and presence of PTX (200 ng/ml, 16 h); FIG. 7e
T2 construct: A full length cDNA clone of human GPCR22 was provided by Origene Technologies; expressed in transfected cells; host or cells: 1321N1 human astrocytoma cells
T2 sequence (Q99680 whole entry C425R): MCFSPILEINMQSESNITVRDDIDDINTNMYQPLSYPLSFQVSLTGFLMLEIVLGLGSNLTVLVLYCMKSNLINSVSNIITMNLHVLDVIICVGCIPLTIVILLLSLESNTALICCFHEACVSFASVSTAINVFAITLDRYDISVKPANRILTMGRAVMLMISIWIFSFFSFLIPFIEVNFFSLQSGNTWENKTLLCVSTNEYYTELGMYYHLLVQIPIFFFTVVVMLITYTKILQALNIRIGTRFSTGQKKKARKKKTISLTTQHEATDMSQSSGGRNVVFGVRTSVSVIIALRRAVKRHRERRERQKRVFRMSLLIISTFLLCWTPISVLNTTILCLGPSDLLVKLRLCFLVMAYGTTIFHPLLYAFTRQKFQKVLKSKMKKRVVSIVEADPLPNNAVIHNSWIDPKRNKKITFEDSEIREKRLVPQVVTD

GPCR22 [4] = biological target: T3, GPCR22 (Homo sapiens, UniProt Q99680, C425R); test: Erk 1/2 and Akt phosphorylation by guanosine in 1321N1 human astrocytoma cells transfected with GPCR22 DNA (Western Blot); format: cell-based; conditions: guanosine 300 μM, compared to non-GPCR22-transfected 1321N1 cells
T3 construct: A full length cDNA clone of human GPCR22 was provided by Origene Technologies; host or cells: 1321N1 human astrocytoma cells, pCMV vector, transient
T3 sequence (Q99680 whole entry C425R): as above
Procedure: A full length cDNA clone of human GPCR22 was provided by Origene Technologies. Transient expression in the 1321N1 cell line was performed using a pCMV expression vector. cDNA fragments present in an expression vector (pCMV) is located downstream of a transcriptional promoter capable of driving heterologous gene expression in a variety of mammalian cells. 1321N1 cell lines were transiently transfected with hGPCR22 cloned into pCMV expression vectors (Invitrogen). DNA transfection was performed by lipofection using Lipofectamine (Life Technologies). Twenty-four hours after transfection, the cells were lysed and assayed. RT-PCR analysis using GPCR22 forward: CTCATCTGCTGTTTCCACGA (SEQ. ID NO: 5) and GPCR22 reverse CGGATGTTAAGAGCCTGGAG (SEQ. ID NO: 6), was used to confirm the transfection of GPCR22 (G1) (labelled “1321N1 G1-pCMV Trans”) into 1321N1 cells as shown in FIG. 6a and evidenced by the band at 411 bp. Furthermore, the expression of GPCR22 (labelled “1321N1 G1-pCMV Trans”) in 1321N1 cells as compared to non-G1 transfected cells (labelled “1321N1”) was confirmed by Western Blot analysis using a rabbit polyclonal anti-GPCR22 antibody (NovateinBio, SH-A12465, MA, USA), as shown in FIG. 6b.

GPCR22 [5] = biological target: T1, GPCR22; test: Erk 1/2 and Akt phosphorylation by guanosine in cultured rat astrocytes treated with siRNA for GPCR22 (Western Blot); format: cell-based; design: endogenous in cells; host or cells: cultured rat (brain) astrocytes
Procedure: (§2) Transient transfection of siRNAs for the rGPCR22 gene on rat cultured astrocytes and cell extracts were assayed for gene silencing 24 h after transfection was carried out. siRNA duplex specific for the rGPCR22 receptor were designed and chemically synthesized (www.Dharma.com), as well as their non specific control (NSC). Transfection of siRNAs for targeting endogenous genes was carried out using Oligofectamine (Invitrogen, Life Technologies) according to the manufacturer's instruction. Briefly, astrocytes at 60-70% confluence were cultured for 1 day in culture medium without antibiotics. 10 ml siRNA (20 mM) (Dharmacon research, Inc.) were diluted in 175 ml optimem for 5 min at room temperature. In the meantime, 3 ml oligofectamine was mixed in 15 ml optimem for 5 min. RNA interference was performed by mixing diluted oligofectamine and siRNA for 30 min at room temperature and was then added to the cells. The same scheme was performed on other samples using a siRNA-scrambled (NSP=non specific control). Cells were incubated at 37° C. for 24 hours. Twenty-four hours after transfection, the cells were lysed and assayed for gene silencing. The effect of GPCR22 silencing on MAPK and AKT phosphorylation, and cAMP assay was analysed.

non-transfected S2 cells [6] = test: Actinomycin D-induced apoptosis, Caspase-3 flow cytometry, non-transfected S2 cells; format: cell-based, Drosophila; conditions: 100 μM guanosine before 1 μM actinomycin D
Procedure: as §1

GPCR22 [7] = biological target: T1, GPCR22; test: Guanosine binding in rat astrocytes after inhibition of GPCR22 by siRNA; design: endogenous in cells; host or cells: cultured rat (brain) astrocytes; conditions: astrocytes with GPCR22 inhibited by siRNA; data not shown
Procedure: as §2, with “analysed. […]” for “analysed.”

GPCR22 [8] = biological target: T1, GPCR22; test: [3H]-guanosine binding to GPCR22 protein extracted from transfected S2 cells, competition with cold guanosine; design: expressed in transfected cells; host or cells: Drosophila Schneider 2 (S2) cells, pMT-V5-HisA vector, CuSO4 induction; conditions: 10 nM [3H]-guanosine, 25° C., 75 min, FIG. 14
Procedure: The ability of GPCR22 receptor to bind to guanosine was assessed by performing competitive binding studies in the presence of cold guanosine. GPCR22 protein extracted from transfected […] cells were used in performing receptor-binding studies. The binding of [^3H]-guanosine (“hot” guanosine) to GPCR22 receptor was performed in triplicate in a final volume of 125 μl assay buffer (pH 7.4, 50 mM Tris-HCl, 1 mM EDTA, 5 mM MgCl2, 0.1 mM DTT, 0.1 mM PMSF, 100 mg/ml bacitracin and 5 mg/ml soybean trypsin inhibitor) containing 10 nM [^3H]-guanosine and the following concentrations of unlabeled guanosine (“cold” guanosine) (0.01 μM, 0.1 μM, 1.0 μM, 10 μM, 100 μM and 1 mM) and 50 ug of protein. The incubation of the GPCR22 receptor protein with ligands was carried out at 25° C. for 75 min. At the end of the incubation period, the unbound ligands were separated by vacuum filtration through Whatman GF/B filters. The bound ligand-protein was further washed 3 times with 5 ml of Tris-EDTA buffer, pH 7.4 (50 mM Tris-HCl, 1 mM EDTA). The radioactive filters were placed in plastic counting vials containing 4 ml of scintillation fluid, equilibrated overnight in a dark environment and counted the next day in a Beckman LS5000 liquid scintillation counter Model 1780. Non-specific binding was also calculated by the addition of excess guanosine (10 mM). […]

`Nc1nc2c(ncn2[C@@H]2O[C@H](CO)[C@@H](O)[C@H]2O)c(=O)[nH]1` [guanosine] was tested, and the “intracellular Ca^2+ level” value (non-transfected S2 cells [1]) was “does not induce; also recorded: had no effect”, the “protection from actinomycine-induced apoptotic cell death (Caspase-3)” value [2] was “protected transfected S2 cells from apoptotic cell death” and the “time of intracellular calcium increase after adding guanosine” value (GPCR22 [3]; GPCR22-transfected S2 cells) was at most 2 min. For the same compound, the “intracellular Ca^2+ level” value (GPCR22 [3]; GPCR22-transfected S2 cells, FIGS. 12b, 12c, 15) was “elevate intracellular Ca^2+ levels; also recorded: significantly increases intracellular calcium level”, the “guanosine dose giving peak intracellular calcium increase” value (GPCR22 [3]; GPCR22-transfected S2 cells, low dose 0.1 μM to 10 μM, FIG. 13g) was 5 µM and the “intracellular Ca^2+” value (GPCR22 [3]; guanosine 25 μM, time point 1 min, FIG. 13e) was “significant increase”. The “intracellular Ca^2+ fluorescence” value (GPCR22 [3]; guanosine 100 μM, imaging at 0, 0.5, 1 and 2 min, FIGS. 13a-d) was “fast and transient fluorescence increase”, the “intracellular Ca^2+ response across high doses” value (GPCR22 [3]; high dose guanosine 25 μM-400 μM, time point 1 min, FIG. 13f) was “no significant difference” and the “intracellular cAMP levels” value (GPCR22 (G1) receptor) was “increase intracellular cAMP levels”. For the same compound, the “phosphorylation of Erk 1/2” value (GPCR22 [4]; FIG. 7c) was “resulted in phosphorylation of both Erk 1/2 and Akt”, the “phosphorylation of Akt” value (GPCR22 [4]; FIG. 7d) was “resulted in phosphorylation of both Erk 1/2 and Akt” and the “activation of intracellular signaling by guanosine” value (GPCR22 [5]; astrocytes with GPCR22 inhibited by siRNA, data not shown) was “abolish”. The “phosphorylation of Erk 1/2” value (GPCR22 [5]; guanosine 300 μM, astrocytes treated with si-RNA for GPCR22, FIG. 7a) was “inhibited”, the “phosphorylation of Akt” value (GPCR22 [5]; guanosine 300 μM, astrocytes treated with si-RNA for GPCR22, FIG. 7b) was “inhibited” and the “protection from actinomycine-induced apoptotic cell death (Caspase-3)” value (non-transfected S2 cells [6]) was “had no effect”. The guanosine binding (GPCR22 [7]) was “abolish”, the Bmax (GPCR22 [8]) was 1.05±0.12 pmol mg^−1 protein and 1.057 pmol mg^−1 protein and the Kd (GPCR22 [8]; single high affinity binding site) was 171 ± 39.8 nM.
